Test results published in doi:10.1101/2025.07.20.665728 (bioRxiv, 2025).

How the values were obtained:
soluble WT MR1 = assay: Fluorescence-based thermal shift assay of MR1-ligand complexes; assay type: binding, human; details: MR1 refolded with the ligand, Sypro Orange, three independent experiments
C1R.MR1^K43A cells = assay: Cell surface MR1 K43A quantification, C1R.MR1^K43A; assay type: cell-based
From the text: (§1) We then tested the effect of the RF catabolites on the expression of two mutant versions of MR1 termed MR1^R9H ([Howson et al., 2020]) and MR1^K43A ([Reantragoon et al., 2013]). First, we tested the MR1^R9H mutant ([Howson et al., 2020]) which represents a rare, natural human polymorph. […] When C1R. […] Next, we tested sought to understand how the previously characterised Lys43A mutation affects ligand binding. […] While this is in line with the ability of these ligands to bind MR1, the reason for MR1^K43A cell surface accumulation is less clear. The most likely explanation is that these ligands bind ER-resident MR1^K43A, in line with our data using wild-type MR1; however, because the K43A mutation results in spontaneous MR1 surface egress, the presence of these stabilising ligands promotes enhanced trafficking and/or retention at the cell surface. We cannot rule out however that the ligands may also bind directly to surface MR1^K43A and slow down the recycling from cell surface.
The level of MR1 expressed on the cell surface was measured after the exposure to the investigated ligands as previously described ([Awad et al., 2020a]; [Wang et al., 2022a]). C1R antigen presenting B lymphocytes overexpressing MR1*01 (C1R.MR1), MR1^K43A mutant (C1R.MR1^K43A), MR1^R9H mutant (C1R.MR1^R9H) or HLA-A*02:01 (C1R-A2), in addition to the monocytic THP-1-MR1 cells, were used in this study. 2 x 10^5 cells were incubated with RF catabolites for 3 or 16 h at 37° C and 5% CO2 in 200 μl folate-free RPMI 1640 medium from Gibco (Cat. No. 11875-093) fortified with 10% fetal bovine serum (FBS), sodium pyruvate (1 mmol/L), Hepes buffer (15 mmol/L), pH 7.2 to 7.5, 2% penicillin (100 U/ml), streptomycin ([…]), glutamax (2 mmol/L), nonessential amino acids (0.1 mmol/L) (all from ThermoFisher, Life Technologies), and 2-mercaptoethanol ([…], Sigma) (RF-10). After incubation, the cells were first stained with Zombie Aqua Fixable Viability Kit from BioLegend (Cat. No. 423102) and then incubated with biotinylated 8F2F9 αMR1 antibody for 30 minutes on ice. The unbound antibody was then washed off with 2% fetal bovine serum/PBS. The cells were finally incubated with PE-conjugated streptavidin (BioLegend, 30 μg/ml) and then washed with 2% fetal bovine serum/PBS. The PE fluorescence intensity reflects the surface MR1 level. The data was acquired with an LSRFortessa X-20 (BD Biosciences) and Diva software (BD Biosciences) and analyzed using FlowJo software (BD Biosciences).
Figure S2. Responses of different APCs to RF catabolites. […] C1R cells expressing (b) wild-type level of MR1*01, or overexpressing (c) HLA-A*02:01 or (d) MR1.K43A mutant were incubated for the indicated periods with titrated quantities of ligand followed by flow cytometry. The C1R and C1R.A2 cells were stained with biotinylated 8F2F9 and W6/32, respectively; followed by PE-labelled streptavidin. In all experiments, the MR1 and HLA-A*02:01 surface expression are depicted as a fold change from basal surface expression upon incubation with the vehicle (1 mM NaOH). Each column represents the average of at least three independent experiments performed in duplicate with standard error (SEM) represented by error bars. One-way ANOVA statistical analysis was performed for all samples followed by Dunnett multiple comparison test using NaOH as a control (ns; not significant, * p <0.05, **p < 0.01, ***p < 0.001, ****p < 0.0001).

C1R.MR1 cells [1] = assay: Intracellular total folded MR1 by flow cytometry (8F2.F9); assay type: cell-based; details: C1R.MR1, 100 μM, 16 h
C1R.MR1 cells [2] = assay: Competition with Ac-6-FP/5-OP-RU-induced MR1 upregulation, C1R.MR1; assay type: cell-based; details: for reduction of Ac-6-FP response: 200 μM (highest concentration), overnight, cell line not given
MAIT cells in human PBMC [3] = assay: MAIT cell proliferation in CTV-labeled PBMCs; assay type: cell-based; details: day 7, 5-OP-RU 10 μM, RF ligands 100 μM
MAIT cells in human PBMC [4] = assay: Primary MAIT activation (CD69) in PBMCs; assay type: cell-based; details: 16 h, co-incubation with 5-OP-RU
THP-1.MR1 cells = assay: Cell surface MR1 quantification by flow cytometry, THP-1.MR1; assay type: cell-based; details: THP-1.MR1, 3 h
Procedure: Next, we investigated whether these RF catabolites can impact MR1 cell surface expression in both MR1-transduced B cell lymphoblastoid (C1R.MR1) and monocytic (THP-1.MR1) cell lines (Fig. 2). Here, the cells were pulsed with 1–200 μM of RF or the RF catabolites, and the cell surface levels of MR1 were quantified by flow cytometry ([Awad et al., 2020a]; [Keller et al., 2017]). Cell viability was unaffected, even at highest concentrations of the catabolites, as depicted in Fig. S2A. […] No impact on the MR1 surface level was observed when the parental C1R cells were incubated with these RF catabolites, probably due to the low basal surface MR1 level whose further reduction becomes undetectable by the anti-MR1 antibody (Fig. S2B). The MR1 downregulation seen in C1R.MR1 cells was specific to MR1 as the level of HLA-A*02:01 was not affected after pulsing C1R-A2 with the ligands (Fig. S2C). […]
(§2) The level of MR1 expressed on the cell surface was measured after the exposure to the investigated ligands as previously described ([Awad et al., 2020a]; [Wang et al., 2022a]). […] The PE fluorescence intensity reflects the surface MR1 level. The data was acquired with an LSRFortessa X-20 (BD Biosciences) and Diva software (BD Biosciences) and analyzed using FlowJo software (BD Biosciences).

C1R.MR1^R9H cells = assay: Cell surface MR1 R9H quantification, C1R.MR1^R9H; assay type: cell-based
From the text: as §1, §2

Structure (SMILES) | Tm50 (half maximum melting temperature), Mean ± SD (soluble WT MR1; listed as MR1-alloxazine) | MR1^K43A at the cell surface (C1R.MR1^K43A cells; 3 h) | total level of folded MR1 (intracellular staining with 8F2.F9) (C1R.MR1 cells [1]) | reduction of Ac-6-FP response (C1R.MR1 cells [2]; then 10 μM Ac-6-FP 3 h) | Tm50 (half maximum melting temperature), Mean ± SD (soluble WT MR1; listed as MR1-lumichrome) | MR1^K43A at the cell surface (C1R.MR1^K43A cells; 16 h) | MAIT cell proliferation (MAIT cells in human PBMC [3]) | competition with 5-OP-RU for MAIT activation (CD69) (MAIT cells in human PBMC [4]) | Tm50 (half maximum melting temperature), Mean ± SD (soluble WT MR1; listed as MR1-lumiflavin) | MR1 cell surface expression (THP-1.MR1 cells) | MR1^R9H surface level (C1R.MR1^R9H cells) | effect on Ac-6-FP-induced cell surface upregulation of MR1 (C1R.MR1 cells [2]; C1R.MR1, 1–200 μM overnight, then 10 μM Ac-6-FP 3 h) | effect on 5-OP-RU-induced cell surface upregulation of MR1 (C1R.MR1 cells [2]; C1R.MR1, 1–200 μM overnight, then 5-OP-RU 3 h)
O=c1nc2[nH]c3ccccc3nc-2c(=O)[nH]1 [Alloxazine, alloxazine] | 49.9–52.0 °C | increased | also increased the total level of folded MR1 | more than 80% |  |  |  |  |  |  |  |  | 
Cc1cc2nc3[nH]c(=O)[nH]c(=O)c3nc2cc1C [Lumichrome, 7,8-dimethylalloxazine] |  | increased | also increased the total level of folded MR1 | more than 80% | 49.9–52.0 °C | MR1 upregulation continues | significantly reduced MAIT cell proliferation | most potent competitor |  |  |  |  | 
Cc1cc2nc3c(=O)[nH]c(=O)nc-3n(C)c2cc1C [Lumiflavin] |  | increased |  | more than 80% |  |  |  |  | 49.9–52.0 °C | downregulated MR1 |  |  | 
Cc1cc2nc3c(=O)[nH]c(=O)nc-3n(C[C@H](O)[C@H](O)[C@H](O)CO)c2cc1C [RF, Riboflavin] |  |  |  |  |  | MR1 upregulation continues |  | potent concentration-dependent competition |  |  | did not deviate from the background level | did not modulate | did not modulate
